Results from US20120122832A1, “METHOD OF MAKING CEFQUINOME PARTICLES” (priority 2009, published 2012).
Structures can show the parent of a compound that is named as a salt.

How the values were obtained:
[1] = Particle size distribution (PSD) of precipitated cefquinome sulfate particles by laser light scattering; format: physicochemical
[2] = Particle size distribution of ethyl oleate formulations, Malvern Master Sizer with Hydro 2000G cell, Frauenhofer method; format: physicochemical; details: Table 1, Malvern Master Sizer
Description: The particle size was determined with a Malvern Master Sizer GMAL 01 with the Hydro 2000G measuring cell according to Frauenhofer method.

[3] = 1 minute stirring only in the measurement equipment
[4] = 10 minutes stirring + 6 minutes of ultrasound
[5] = 10 minutes stirring only in the measurement equipment

| Compound | PSD D(50) [1, 3] | PSD D(100) [1, 3] | PSD DE(90) [1, 3] | PSD D(50) [1, 4] | PSD D(100) [1, 4] | PSD DE(90) [1, 4] | PSD D(50) [1, 5] | PSD D(100) [1, 5] | PSD DE(90) [1, 5] | D(0.50) [2] | D(0.90) [2] | D(100) [2] |
| --- | --- | --- | --- | --- | --- | --- | --- | --- | --- | --- | --- | --- |
| CO/N=C(\C(=O)N[C@@H]1C(=O)N2C(C(=O)[O-])=C(C[n+]3cccc4c3CCCC4)CS[C@H]12)c1csc(N)n1 [Example 8, Cefquinome sulfate] | 4.78 μm | 239.9 μm | 66.97 μm | 0.15 μm | 5.01 μm | 1.98 μm | 3.34 μm | 11.48 μm | 5.95 μm | – | – | – |
| CO/N=C(\C(=O)N[C@@H]1C(=O)N2C(C(=O)[O-])=C(C[n+]3cccc4c3CCCC4)CS[C@H]12)c1csc(N)n1 [prior art non micronized material, cefquinome sulphate] | – | – | – | – | – | – | – | – | – | 63.01 μm | 114.75 μm | 178.25 μm |
